Experimental data taken from patent US20260015341A1, “PI3K INHIBITOR, PREPARATION METHOD THEREFOR, AND USE THEREOF” (HINOVA PHARMACEUTICALS INC., priority 2022, published 2026).
pIC50: −log10 of the molar value.

Legend:
[1] = Pharmacokinetics in beagle dogs; assay type: in vivo; details: beagle dog; for AUC / half-life / clearance / Vd: male, plasma; for Vd: read-out: VSS
Method: Experimental Example 5: The Pharmacokinetics of the Compound According to the Present Invention in Beagle Dogs
9 healthy adult male beagle dogs (three for each administration route of each compound) were fasted overnight (>12 h) before gavage, with free access to water; 4 hours after administration, rats could take food, and were administered via tail vein injection and gastric lavage, respectively. At different time points, forelimb venous blood sample was collected and anti-coagulated, wherein the anticoagulant was EDTA-K2 (the sample was placed in an ice bath after blood collection). The plasma was separated by centrifugation at 3200 g for 10 min, and stored at −70° C. for testing. The plasma concentration of compounds was determined by LC-MS/MS method.
The plasma concentration of compound at all time points was used to calculate the main pharmacokinetic parameters with Winnolin 8.3 non-compartmental model.
The area under the concentration-time curve AUCall value: calculated using the trapezoidal method; AUCinf=AUCall+Ct/ke, Ct is the plasma concentration at the last measurable time point, and ke is the elimination rate constant;
The clearance rate CL=D/AUCinf (D is the administration dosage);
The volume of distribution at steady state Vss=CL×MRT. The mean retention time MRT=AUMC/AUC;

[2] = biological target: PI3Kα[WT]/[E542K]/[E545K]/[H1047R]/PI3Kβ/γ/δ; assay: PI3K enzyme activity assay (ADP-Glo); assay type: biochemical; details: PI3K kinase reaction, isoform not given
Method: Experimental Example 1: PI3Kα[WT]/[E542K]/[E545K]/[H1047R]/PI3Kβ/γ/δ Enzyme Activity Assay
PI3Kα[WT], PI3Kα[E542K], PI3Kα[E545K], PI3Kα[H1047R], PI3Kβ, PI3Kγ and PI3Kδ kinase reaction was performed in 384-well plate (PerkinElmer, #6008280), with a reaction system of 4 μL. PI3Kα[WT] enzyme solution (Promega, #V1721) or PI3Kα[E542K] enzyme solution (CarnaBio, #11-413-20N) or PI3Kα[E545K] enzyme solution (CarnaBio, #11-414-20N) or PI3Kα[H1047R] enzyme solution (Promega, #V1741) or PI3Kβ enzyme solution (Promega, #V1751) or PI3Kγ enzyme solution (ThermoFisher, #PV4786) or PI3Kδ enzyme solution (ThermoFisher, #PV6451) were added to 384-well plate, and then gradiently diluted compounds were added (starting at a final concentration of 10 μM, 3-fold dilution, 10 doses), followed by adding PIP2: 3PS (Promega, #V1701) and ATP solution (Promega, #V915B) to the plate. After incubation at 25° C. for 1 h, ADP-Glo reagent buffer (Promega, #V9102) was added to each well. The plate was sealed and incubated at 25° C. for 40 min, and then 10 μL of ADP-Glo detection buffer (Promega, #V9102) was added to each well. After incubating at 25° C. for 40 min, the chemiluminescence value was read using an instrument.
The experimental results are shown in the ADP Glo IC50 column in Table 2.

[3] = po, ig (intragastric), 10 mg/kg

| SMILES | F ([1]; ig (intragastric), 3 mg/kg) [%] | F ([1]; ig (intragastric), 10 mg/kg) [%] | AUC ([1]; po, ig (intragastric), 3 mg/kg) [ng·h/mL] | half-life ([1]; po, ig (intragastric), 3 mg/kg) [h] | AUC [1, 3] [ng·h/mL] | half-life [1, 3] [h] | AUC ([1]; iv, 1 mg/kg) [ng·h/mL] | clearance ([1]; iv, 1 mg/kg) [mL/min/kg] | half-life ([1]; iv, 1 mg/kg) [h] | Vd ([1]; iv, 1 mg/kg) [L/kg] | pIC50 [2] |
| --- | --- | --- | --- | --- | --- | --- | --- | --- | --- | --- | --- |
| Cc1cc([C@@H](C)Nc2ccc(Cl)nc2C(=O)O)c2nc(-c3ccc(F)cn3)n(C)c(=O)c2c1 [Compound 66, (R)-6-chloro-3-((1-(2-(5-fluoropyridin-2-yl)-3,6-dimethyl-4-oxo-3,4-dihydroquinazolin-8-yl)ethyl)amino)pyridinecarboxylic Acid] | 74.5 | 49.1 | 4910 | 3.81 | 11000 | 7.7 | 2210 | 7.77 | 3.34 | 0.879 | > 6.00 |
| C[C@@H](Nc1ccc(Cl)nc1C(=O)O)c1cc(F)cc2c(=O)n(C)c(-c3ccc(F)cn3)nc12 [Compound 74] | 52.4 | 62.8 | 3710 | 4.11 | 13700 | 12.7 | 2390 | 6.9 | 5.56 | 0.663 | > 6.00 |
